The test system of assay [1] is PKAI. Nature of the assay: Relative affinity for PKAI (cAMP = 1), in vitro. Format: binding. The note with it: relative to cAMP = 1.
Assay [2] concerns type II holoenzyme of PKA (PKAII). Nature of the assay: In vitro activation of cAMP-dependent protein kinase, type II holoenzyme (kemptide substrate). Format: biochemical. The note with it: compared to cAMP, FIG. 5. As for the experimental part: Cyclic AMP dependent protein kinase I and II were reconstituted from isolated subunits and assayed for kinase activity using […] kemptide as substrate, as described previously (15).

Assay [3] deals with CREB. Nature of the assay: CREB phosphorylation in Ovcar3 cells. The note with it: concentration of 200 μM. The assay is classed as cell-based. As for the experimental part:
A: 8-pCPT-2′-O-Me-cAMP stimulates cell adhesion. Upper panel: quantification of Ovcar3 cells adhering to fibronectin after treatment with increasing concentrations of 8-pCPT-2′-O-Me-cAMP. Lower panel: Ovcar3 cells were treated with increasing concentrations of 8-pCPT-2′-O-Me-cAMP for 15 min, cells were lysed and analyzed for activation of Rap1 (upper blot) and CREB (lower blot). Total Rap1 levels are shown (middle blot). B: 8-pCPT-2′-O-Me-cAMP increases the rate of cell adhesion. Upper panel: quantification of Ovcar3 cells adhering to fibronectin at various time points. Lower panel: cells were treated with 60 μM 8-pCPT-2′-O-Me-cAMP for the indicated times. Cell lysates were analyzed for activation of Rap1 (upper blot) and CREB (lower blot). Total levels of Rap1 in cell lysates are shown (middle blot). C: Ovcar3 cells were either pre-incubated at 37° C. for 30 min with the PKA inhibitor H-89 (10 μM) 30 min prior to seeding onto the wells (‘Short’) or H-89 was added 30 min prior to trypsinization and during the recovery period (‘Long’) and seeded onto wells in the absence or presence of 8-pCPT-2′-O-Me-cAMP (100 μM). Cells were allowed to adhere for 1 h. D, cAMP-induced adhesion to fibronectin is blocked by inhibitors of Rap1. […] Cells were treated with 8-Br-cAMP or 8-pCPT-2′-O-Me-cAMP and adhesion to fibronectin was determined. […]

Assay [4] has as its system Ovcar3 cells. Nature of the assay: Adhesion of Ovcar3 cells to poly-L-lysine (integrin-independent). Format: cell-based. The note with it: FIG. 8. As to the method: Upper panel: a βl integrin-blocking peptide containing the RGD sequence present in fibronectin inhibits 8-pCPT-2′-O-Me-cAMP-induced cell adhesion. Ovcar3 cells were pre-treated for 20 minutes with RGD-peptide (100 μM) where indicated, and seeded in wells with or without 8-pCPT-2′-O-Me-cAMP. Cells were allowed to adhere for 1 h. […] Ovcar3 cells were seeded onto poly-L-lysine-coated plates. At various time points, adherent cells were quantified.
24-well plates were coated overnight with 2 μg/ml fibronectin (Sigma, St. Louis, Mo., USA) in sodium bicarbonate buffer (Sigma, St. Louis, Mo., USA). […] Cells were centrifuged, counted and resuspended at 3×10^5 cells/ml in serum-free RPMI with 0.5% BSA. […] Adherent cells were lysed in luciferase lysis buffer (15% glycerol, 25 mM Tris-phosphate pH 7.8, 1% Triton X-100, 8 mM MgCl2, 1 mM DTT) at 4° C. for 30 min and units of luciferase activity were quantified with addition of equal volume of luciferase assay buffer (25 mM Tris-phosphate pH 7.8, 8 MM MgCl2, 1 mM DTT, 1 mM ATP pH 7, 1 mM luciferin) using a luminometer (Lumat LB9507; Berthold Technologies, Belgium). […] Specific adhesion (%) was determined (counts in cells bound/counts in total input×100) and plotted either directly or relative to the basal adhesion of HA vector-transfected cells. […]

For assay [5], the system named is extracellular signal-regulated kinase (ERK). Nature of the assay: ERK activation / inactivation in vivo (cells). Format: cell-based.
Assay [6] deals with INS-1 insulin-secreting cells. The note with it: cited from earlier work.

Turning to `CO[C@@H]1[C@@H]2OP(=O)(O)OC[C@H]2O[C@H]1n1c(Sc2ccc(Cl)cc2)nc2c(N)ncnc21` [Compound I-007, 8-(4-chloro-phenylthio)-2′-O-methyladenosine-3′,5′-cyclic monophosphate], the “Relative affinity CAMP = 1 PKAI” value in assay [1] was found to be 0.009. Besides, the “ability to activate the type II holoenzyme of PKA” value in assay [2] is “greatly impaired”. Also, the CREB phosphorylation result in assay [3] was “did not induce CREB phosphorylation”. For the same compound, the “integrin-independent adhesion to poly-L-lysine” value in assay [4] is “did not increase”. Further, in assay [5], the “activation and inactivation of ERK” value is recorded as “affected neither the activation nor the inactivation”. Also, in assay [6], the exocytosis entry is reported as “induces exocytosis” and the “mobilization of Ca2+ from intracellular Ca2+ stores via Epac-mediated CICR” value is on record as “can induce mobilization of Ca^2+”.

These data come from patent US7906491B2 (Univisitair Medisch Centrum Utrecht, priority 2002, dated 2011).
